Consider two molecules from article PMC7948405, “Small-molecule control of neurotransmitter sulfonation” (The Journal of Biological Chemistry, 2020).

Test [1] has as its target T1, SULT1A3 (Homo sapiens, UniProt P0DMM9).
T1 construct: E. coli–optimized SULT coding regions were inserted into a pGEX-6P expression vector; N-His/GST/MBP triple tag (PreScission-cleavable) (N, cleaved yes); made in house; host or cells: E. coli BL21(DE3)
Also on record: method as in PMID 30545938. To be noted: saturating inhibitor, cited from earlier work.

The target of test [2] is T1, SULT1A3. Nature of the test: Pre-steady-state (stopped-flow fluorescence) binding of PAP to SULT1A3 complexes. The note with it: for Kd: read-out: Kd (koff/kon). An excerpt:
Figure 4 The inhibition mechanism. A, equilibrium binding. Binding was monitored via ligand-induced changes in SULT1A3 intrinsic fluorescence (λex = 290 nm, λem = 335 nm). […] Each dot represents the average of three independent titrations. Lines passing through the data represent the outcomes predicted by least-squares fitting of the averaged data to a single-binding-site model. B, representative PAP-binding reaction. PAP binding was monitored using a stopped-flow fluorimeter (λex = 290 nm, λem ≥ 330 nm (cutoff filter)). Reactions were initiated by rapidly mixing (1:1 v/v) a solution containing SULT1A3 (30 nM, dimer), CMP13 (1.0 μM, 100 × Kd), Tam (160 μM, 200 × Kd), KPO4 (50 mM), pH 7.5, 25(±2) °C, with a solution that was identical except that it lacked SULT1A3 and contained PAP (2.0 μM). The average of five independent progress curves shown and the kobs was obtained by fitting the data to a single exponential. C, pre–steady-state binding. PAP binding was monitored as described for panel B. Reactions were initiated by mixing (1:1 v/v) a solution containing SULT1A3 (30 nM, dimer), CMP13 [0 μM (black dots) or 1.0 μM, 100 × Kd (red and blue dots)], Tam [0 μM (black and blue dots) or 160 μM, 200 × Kd (red dots)], KPO4 (50 mM), pH 7.5, 25(±2) °C, with a solution that was identical except that it lacked SULT1A3 and contained PAP at twice the indicated concentrations. Each kobs value was determined in triplicate, and the averaged values are shown. kon and koff are given, respectively, by the slopes and intercepts obtained from linear least-squares fitting of the kobs vs [PAP] plot. PAP, 3′-phosphoadenosine-5′-phosphate; SULT1A3, sulfotransferase 1A3; Tam, 4-hydroxy-tamoxifen.
To resolve this uncertainty, PAP on- and off-rate constants for a series of open and closed complexes were determined using stopped-flow fluorescence. A representative binding reaction can be seen in Fig. 4B. The binding reactions were pseudo-first order in [PAP], and kobs values were obtained by fitting reaction progress curves to a single-exponential equation. On- and off-rate constants (see Table 3) are given by the plot slopes and intercepts.
Pre–steady-state binding of PAP to SULT1A3 was monitored via ligand-induced changes in SULT1A3 fluorescence using an Applied Photophysics SX20 stopped-flow spectrofluorometer. Fluorescence was measured at λex = 290 nm and λem ≥ 330 nm (using a cutoff filter). […] All reactions were pseudo first order with respect to [PAP]. kobs values, determined in triplicate at each PAP concentration, were obtained by least-squares fitting the average of five progress curves to a single-exponential equation. kon and koff, obtained by linear least-squares fitting, are given by the slopes and intercepts of four-point kobs-vs-[PAP] plots.

Test [3] concerns the target T1, SULT1A3. Nature of the test: Equilibrium binding of PAP to SULT1A3 complexes (intrinsic fluorescence). As for the experimental part:
CMP13 binding to SULT1A3 was monitored via binding-induced changes in SULT1A3 intrinsic fluorescence (λex= 290 nm, λem= 335 nm ([17])). […] PAP binding was determined using the same protocol except that [PAP] was varied and CMP13 was 1.0 μM (100 × Ki). Titrations were performed in triplicate. Data were averaged and least-squares fit using a model that assumes a single binding site per monomer.

Where [4] appears, read: PAP binding to complex E·CMP13, CMP13 1.0 μM.
The mark [5] stands for this setting: PAP binding to complex E·CMP13·Tam, CMP13 1.0 μM, Tam 160 μM.
Setting [6] is: PAP binding to complex E·CMP13·Tam.

T1 sequence (P0DMM9 whole entry): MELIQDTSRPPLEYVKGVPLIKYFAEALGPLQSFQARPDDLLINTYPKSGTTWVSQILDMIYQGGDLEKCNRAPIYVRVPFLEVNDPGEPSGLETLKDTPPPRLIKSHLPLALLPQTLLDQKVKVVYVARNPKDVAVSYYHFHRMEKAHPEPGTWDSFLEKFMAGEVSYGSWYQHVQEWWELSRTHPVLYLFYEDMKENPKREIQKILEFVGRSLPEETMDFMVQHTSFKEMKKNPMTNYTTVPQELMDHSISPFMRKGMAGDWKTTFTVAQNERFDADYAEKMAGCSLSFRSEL

As for `CC(C)Cc1ccc2cc(CO)ccc2n1` [CMP8], the “% Inhibition at saturation” value at SULT1A3 [1] (in vitro) was 54 (3) %. Moreover, on SULT1A3 [1], the “factor by which SULT1A3 turnover is reduced at saturation” value is 2 and the “turnover at saturation as % of that seen in absence of inhibitor” value was 46%.

Take `Nc1ncnc2c1ncn2[C@@H]1O[C@H](COP(=O)(O)O)[C@@H](OP(=O)(O)O)[C@H]1O` [PAP, 3′-phosphoadenosine-5′-phosphate]: the koff on SULT1A3 [2] (PAP binding to complex E) was 2.5 s⁻¹; on SULT1A3 [2] (setting [4]), 0.18 s⁻¹; at SULT1A3 [2] (setting [5]), 2.3 s⁻¹. Further, the figures for the kon at SULT1A3 [2] (PAP binding to complex E), on SULT1A3 [2] (setting [4]) and on SULT1A3 [2] (setting [5]) were 6.9e+06 M⁻¹ s⁻¹, 6.6e+06 M⁻¹ s⁻¹ and 6.5e+06 M⁻¹ s⁻¹, respectively. The Kd at SULT1A3 [2] (PAP binding to complex E) was determined as 360 nM; at SULT1A3 [2] (PAP binding to complex E·CMP13) it was 29 nM; on SULT1A3 [2] (setting [6]), 350 nM; on SULT1A3 [3] (PAP binding to complex E), 320 nM; on SULT1A3 [3] (setting [4]), 31 nM; on SULT1A3 [3] (setting [6]) it was 350 nM.

As a reminder, the koff is a measure of how fast the partners let go of each other. A higher koff goes with fast dissociation. The term kon denotes the second-order rate constant of association. Low values mean slower complex formation, high ones faster complex formation.
